Measured values published in US8071630B2 (priority 2002, dated 2011).
Where a name gives a salt, the structure may show the parent alone.

Experiments:
[1] = test system: ouabain-induced arrhythmias; details: in vivo; cited from earlier work
[2] = test system: isoprenaline-induced tachycardia; details: in vivo; cited from earlier work
[3] = test system: Aspergillus awamori transformed with the aequorin gene; assay: Example 6: aequorin luminometry of [Ca2+]c response (toxicity) in Aspergillus awamori; type: cell-based; details: FIG. 1A
[4] = Stability in aqueous solution; type: physicochemical; details: only freshly made stocks are effective; product a lot less toxic
Text: 4 pairs of optical enantiomers or salts thereof of the following chemicals were used in this study: • (R)-(+)-α-Methylbenzyl isocyanate and (S)-(−)-α-Methylbenzyl isocyanate. Only freshly made stocks of α-Methylbenzyl […] are effective.

CC(C)NCC(O)COc1cccc2ccccc12 (racemic) [propranolol hydrochloride]
effectiveness in abolishing ouabain-induced arrhythmias [1]: equally effective

CC(C)NCC(O)COc1cccc2ccccc12 (single isomer, unassigned; (+)) [(+)-propranolol]
activity in blocking isoprenaline-induced tachycardia relative to racemic propranolol [2]: less than a hundredth the activity of racemic propranolol | effectiveness in abolishing ouabain-induced arrhythmias [1]: equally effective

COC(=O)C1=C(C)NC(C)=C([N+](=O)[O-])[C@@H]1c1ccccc1C(F)(F)F [(R)-(+)-BAY K8644]
[Ca2+]c response to 10 μM (S)-(−)-BAY K8644 ([3]; preincubation 5 min with 10 μM simple dilution, n=6): significant inhibition | [Ca2+]c final resting level ([3]; preincubation with 10 μM, then 10 μM (S)-(−)-BAY K8644): lower

CC(N=C=O)c1ccccc1 (stereo not drawn) [α-Methylbenzyl isocyanate]
stability in aqueous solution [4]: will react with water

(S)-(−)-propranolol hydrochloride [(S)-(−)-propranolol HCl]
effectiveness in abolishing ouabain-induced arrhythmias [1]: little effect
